Drawing on US12617799B2, “Pyrazolopyrimidinone compounds” (Orphagen Pharmaceuticals, Inc., priority 2021, dated 2026), this text covers EC50 for 18 compounds.

Each structure is given as a SMILES string. Where two headings read alike, the source gives them in different places.

The target of assay [1] is T1, human SF-1 (Homo sapiens, UniProt Q13285).
T1 construct: expressed in transfected cells; host or cells: CHO-K1 cells (Chinese hamster ovary), transient cotransfection with pG5luc
Briefly: SF-1 Luc assay (Gal4DBD-SF-1LBD luciferase reporter in transfected CHO-K1 cells). The assay is classed as cell-based. The following applies: CHO-K1 cells transfected with GAL4-SF-1 plasmid, 40 hours incubation; read-out: hSF-1-Luc: EC50. The source says: BamHI and XbaI sites introduced by the primers […] (forward) and […] (reverse) were used for subcloning the amplicon into pFA-CMV.
Cells were routinely cultured by splitting them from 1:10 to 1:20. […] Four hours after transfection, cells were trypsinized and suspended to a concentration of 1.6×10^5 cells/ml in supplemented Ham's F-12 media.
Assays: The collected cells were resuspended in the culture medium and plated into a 384 well-white plate (Corning Life Sciences, Acton, MA) at 8,000 cells/50 μL/well.
Measurement of SF-1 Transcriptional Activity: SF-1 transcriptional activity was detected as the intracellular Luc activity using SteadyLite Plus HTS Reporter Gene Assay System. After the measurement of the cell viability, the culture media in the 384 well-plate were completely removed. Then, 30 μL of the Luc substrate solution was added into each well and incubated for 10 min at room temperature. After the incubation, luminescence of each well was measured by a microplate reader.
Calculation of the SF-1 Transcriptional Activity (% of Control): The % of control for the transcriptional activity was calculated according to the following equation: % of control=A/B×100 Equation • A: luminescence count in the test article-treated CHO cells transfected with GAL4-SF-1 plasmid • B: mean luminescence count in the vehicle-treated CHO cells transfected with GAL4-SF-1 plasmid

In assay [2] the test system is rat Leydig tumor cell line R2C. As to the kind of experiment: R2C proliferation assay for SF-1 antagonists (EdU incorporation). Type of assay: cell-based. The following applies: read-out: R2C: EC50. As to the method:
SF-1 regulates progenitor cell formation and survival in adult Leydig cells. Anti-proliferative effects of SF-1 antagonists using a SF-1+ rat Leydig tumor cell line, R2C, was investigated. Cell proliferation was measured by detecting DNA incorporation of EdU, a nucleoside analogue that can be fluorescently tagged after cell fixation.
Proliferation of the rat Leydig tumor cell line R2C (ATCC® CCL-97™) was assessed using 5-ethynyl-2′-deoxyuridine (EdU), a nucleoside analogue incorporated during DNA synthesis that can be fluorescently tagged after cell fixation. Cycloheximide, a protein synthesis inhibitor, was used as a positive control for the assay.
R2C cells are maintained according to a protocol provided by the American Type Culture Collection (ATCC). At the time of assay, R2C cells were diluted to 1.0 million cells/mL with culture medium (F12 medium supplemented with 2% FBS and 1% Penicillin-Streptomycin) and 50 uL of cell suspension seeded into each well of 384-well clear bottom plates. The assay plates were incubated in a humidified, 37° C., 6% CO2 atmosphere for 24 hours. Serially diluted SF-1 antagonists, cycloheximide or vehicle (DMSO) were then applied to the R2C cells and incubated in a humidified, 37° C., 6% CO2 atmosphere for two days. EdU (Invitrogen), at a final concentration of 5 μM, was added to the cells and incubated for an additional 16 hours, after which cells were fixed with 10% formalin.
Cells were then washed and permeabilized in 0.5% TritonX-100/PBS solution at RT for 1 hour. EdU incorporation was detected by labeling EdU with 6-FAM azide (Lumiprobe) using a copper (I)-catalyzed Click reaction between an azide and alkyne. The reaction mixture consists of 5 mM ascorbic acid, 1 mM CuSO4, 1 μM 6-FAM azide dissolved in PBS buffer. […] For data normalization, the average fluorescence of DMSO wells was defined as 100%, and average fluorescence of 10 μM cycloheximide wells was defined as 0%. Curve fitting and EC50 determination were performed using the variable slope sigmoidal dose-response analysis.
R2C cells were routinely cultured in R2C culture medium. To assay SF-1 antagonist inhibitory activity, R2C cells were resuspended in the R2C plating medium and plated into a 384 well-clear bottom black plate at 20,000 cells/50 μL/well. […] 10 μL EdU plating solution were then dispensed into each well of assay plate incubated at 37° C., 6% CO2 for two days.
R2C proliferation is measured by detecting the fluorescent labelled EdU. The R2C assay plates were fixed by dispense 60 μL of 10% formalin into each well, and the plates were incubated at room temperature for 1 hour on an orbital shaker. The plates were washed with 80 μL of PBS three times, and cells were permeabilized by treating with 100 μL of PBS-0.5% TritonX-100 at RT for 1 hour on an orbital shaker. The plates were washed with 80 μL of PBS three times, and after the last wash, 25 μL of PBS was dispensed into each well. 25 μL of 2× mounting mix solution was then added into each well of fixed cells, and the plates were incubated at RT for 30 min in the dark on an orbital shaker. The cells were washed with 80 μL of PBS, three times, and after the last wash, 25 μL of PBS was dispensed into each well. […] The cells were washed with 80 μL of PBS, three times, and after the last wash, 50 μL of PBS was dispensed into each well. Assay plates were sealed with aluminum foil, and fluorescence was measured using a Envision microplate reader.
The % of control for the proliferation activity was calculated according to the following equation: % of control=100×(A−C)/(B−C) Equation • A: fluorescence count in the test article-treated R2C cells • B: mean fluorescence count in the vehicle-treated R2C cells • C: mean fluorescence count in the 10 μM cycloheximide-treated R2C cells

T1 sequence (Q13285 198-461 limits assumed): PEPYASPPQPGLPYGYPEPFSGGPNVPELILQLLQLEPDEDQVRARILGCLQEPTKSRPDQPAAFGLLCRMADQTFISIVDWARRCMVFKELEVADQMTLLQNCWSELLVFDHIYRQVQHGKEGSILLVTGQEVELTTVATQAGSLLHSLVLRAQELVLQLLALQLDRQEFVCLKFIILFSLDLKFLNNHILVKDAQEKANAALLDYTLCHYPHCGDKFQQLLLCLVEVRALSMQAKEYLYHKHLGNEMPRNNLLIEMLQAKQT

Broadly, the EC50 is the concentration that produces a half-maximal response. On to `C[C@H](CO)Oc1ccc(NC(=O)Cn2cnc3c(Nc4ccc(C(F)(F)F)cc4)nn(C)c3c2=O)cc1` (single isomer, unassigned) [Compound 25], for which the EC50 in assay [1] was less than 200 nM; in assay [2] (R2C cells, EdU incorporation) it was less than 200 nM.
Regarding `C[C@@H](CO)Oc1ccc(NC(=O)Cn2cnc3c(Nc4ccc(C(F)(F)F)cc4)nn(C)c3c2=O)cc1` (single isomer, unassigned) [Compound 26], the 50% effective concentration (EC50) in assay [1] was less than 200 nM; in assay [2] (R2C cells, EdU incorporation), less than 200 nM.
In the case of `Cn1nc(Nc2ccc(C(F)(F)F)cc2)c2ncn(CC(=O)N[C@H]3CCC[C@H](OC(F)F)C3)c(=O)c21` (single isomer, unassigned) [Compound 43], the EC50 in assay [1] and in assay [2] (R2C) was less than 200 nM throughout.
For `Cn1nc(Nc2ccc(C(F)(F)F)cc2)c2ncn(CC(=O)N[C@@H]3CCC[C@@H](OC(F)F)C3)c(=O)c21` (single isomer, unassigned) [Compound 44], the EC50 in assay [1] and in assay [2] (R2C) was less than 200 nM each time.
For `Cn1nc(Nc2ccc(C(F)(F)F)cc2)c2ncn(CC(=O)N[C@H]3CCC[C@@H](OC(F)F)C3)c(=O)c21` (single isomer, unassigned) [Compound 48], the EC50 in assay [1] and in assay [2] (R2C) was less than 200 nM each time.
`Cn1nc(Nc2ccc(C(F)(F)F)cc2)c2ncn(CC(=O)N[C@@H]3CCC[C@H](OC(F)F)C3)c(=O)c21` (single isomer, unassigned) [Compound 49]: the 50% effective concentration (EC50) in assay [1] and in assay [2] (R2C) was less than 200 nM each time.
Take `COc1ccc(NC(=O)Cn2cnc3c(Nc4ccc(C(F)(F)F)cc4)nn(C)c3c2=O)cc1F` [Compound 11, N-(3-fluoro-4-methoxyphenyl)-2-(1-methyl-7-oxo-3-((4-(trifluoromethyl)phenyl)amino)-1,7-dihydro-6H-pyrazolo[4,3-d]pyrimidin-6-yl)acetamide]: the EC50 in assay [1] was less than 200 nM; in assay [2] (R2C cells, EdU incorporation), less than 200 nM.
With `Cn1nc(Nc2ccc(C(F)(F)F)cc2)c2ncn(CC(=O)Nc3ccc(C(C)(C)S(C)(=O)=O)cc3)c(=O)c21` [Compound 12, 2-(1-methyl-7-oxo-3-((4-(trifluoromethyl)phenyl)amino)-1,7-dihydro-6H-pyrazolo[4,3-d]pyrimidin-6-yl)-N-(4-(2-(methylsulfonyl)propan-2-yl)phenyl)acetamide], the half-maximal effective concentration (EC50) in assay [1] is less than 200 nM; in assay [2] (R2C cells, EdU incorporation), less than 200 nM.
Consider `Cn1nc(Nc2ccc(C(F)(F)F)cc2)c2ncn(CC(=O)NC3CCOCC3)c(=O)c21` [Compound 13, 2-(1-methyl-7-oxo-3-((4-(trifluoromethyl)phenyl)amino)-1,7-dihydro-6H-pyrazolo[4,3-d]pyrimidin-6-yl)-N-(tetrahydro-2H-pyran-4-yl)acetamide], for which the concentration giving a half-maximal response (EC50) is less than 200 nM in assay [1] and 200 to 1000 nM in assay [2] (R2C cells, EdU incorporation).
Turning to `Cn1nc(Nc2ccc(C(F)(F)F)cc2)c2ncn(CC(=O)NCC3CCOCC3)c(=O)c21` [Compound 14, 2-(1-methyl-7-oxo-3-((4-(trifluoromethyl)phenyl)amino)-1,7-dihydro-6H-pyrazolo[4,3-d]pyrimidin-6-yl)-N-((tetrahydro-2H-pyran-4-yl)methyl)acetamide], the EC50 is less than 200 nM in assay [1] and 200 to 1000 nM in assay [2] (R2C cells, EdU incorporation).
Taken in the same sequence, the figures for `Cn1nc(Nc2ccc(C(F)(F)F)cc2)c2ncn(CC(=O)NC(C)(C)C3CCOCC3)c(=O)c21` [Compound 15, 2-(1-methyl-7-oxo-3-((4-(trifluoromethyl)phenyl)amino)-1,7-dihydro-6H-pyrazolo[4,3-d]pyrimidin-6-yl)-N-(2-(tetrahydro-2H-pyran-4-yl)propan-2-yl)acetamide] were 200 to 1000 nM and 1000 to 10000 nM.
Taken in the same sequence, the figures for `C[C@@H](NC(=O)Cn1cnc2c(Nc3ccc(C(F)(F)F)cc3)nn(C)c2c1=O)C1CCOCC1` [Compound 16, (R)-2-(1-methyl-7-oxo-3-((4-(trifluoromethyl)phenyl)amino)-1,7-dihydro-6H-pyrazolo[4,3-d]pyrimidin-6-yl)-N-(1-(tetrahydro-2H-pyran-4-yl)ethyl)acetamide] were 200 to 1000 nM and 1000 to 10000 nM.
Taken in the same sequence, the figures for `C[C@H](NC(=O)Cn1cnc2c(Nc3ccc(C(F)(F)F)cc3)nn(C)c2c1=O)C1CCOCC1` [Compound 17, (S)-2-(1-methyl-7-oxo-3-((4-(trifluoromethyl)phenyl)amino)-1,7-dihydro-6H-pyrazolo[4,3-d]pyrimidin-6-yl)-N-(1-(tetrahydro-2H-pyran-4-yl)ethyl)acetamide] were less than 200 nM and 200 to 1000 nM.
With `Cc1cc(C(C)(C)S(C)(=O)=O)ccc1NC(=O)Cn1cnc2c(Nc3ccc(C(F)(F)F)cc3)nn(C)c2c1=O` [Compound 18, N-(2-methyl-4-(2-(methylsulfonyl)propan-2-yl)phenyl)-2-(1-methyl-7-oxo-3-((4-(trifluoromethyl)phenyl)amino)-1,7-dihydro-6H-pyrazolo[4,3-d]pyrimidin-6-yl)acetamide], the concentration giving a half-maximal response (EC50) in assay [1] is less than 200 nM; in assay [2] (R2C cells, EdU incorporation), less than 200 nM.
Take `Cn1nc(Nc2ccc(C(F)(F)F)cc2)c2ncn(CC(=O)Nc3ccc(C(C)(C)C(=O)O)cc3)c(=O)c21` [Compound 19, 2-methyl-2-(4-(2-(1-methyl-7-oxo-3-((4-(trifluoromethyl)phenyl)amino)-1,7-dihydro-6H-pyrazolo[4,3-d]pyrimidin-6-yl)acetamido)phenyl)propanoic acid]: the EC50 in assay [1] lay within 200 to 1000 nM; in assay [2] (R2C cells, EdU incorporation), 200 to 1000 nM.
As for `Cn1nc(Nc2ccc(C(F)(F)F)cc2)c2ncn(CC(=O)Nc3ccc(OCC(C)(C)O)cc3)c(=O)c21` [Compound 20, N-(4-(2-hydroxy-2-methylpropoxy)phenyl)-2-(1-methyl-7-oxo-3-((4-(trifluoromethyl)phenyl)amino)-1,7-dihydro-6H-pyrazolo[4,3-d]pyrimidin-6-yl)acetamide], the EC50 was less than 200 nM in assay [1] and less than 200 nM in assay [2] (R2C cells, EdU incorporation).
`Cn1nc(Nc2ccc(C(F)(F)F)cc2)c2ncn(CC(=O)Nc3ccc(C(C)(C)C(N)=O)cc3)c(=O)c21` [Compound 21, 2-methyl-2-(4-(2-(1-methyl-7-oxo-3-((4-(trifluoromethyl)phenyl)amino)-1,7-dihydro-6H-pyrazolo[4,3-d]pyrimidin-6-yl)acetamido)phenyl)propanamide]: the EC50 in assay [1] was less than 200 nM; in assay [2] (R2C cells, EdU incorporation) it was less than 200 nM.
For `C[C@H](O)CO[C@H]1CC[C@H](NC(=O)Cn2cnc3c(Nc4ccc(C(F)(F)F)cc4)nn(C)c3c2=O)CC1` [Compound 22, N-((1S,4r)-4-((S)-2-hydroxypropoxy)cyclohexyl)-2-(1-methyl-7-oxo-3-((4-(trifluoromethyl)phenyl)amino)-1,7-dihydro-6H-pyrazolo[4,3-d]pyrimidin-6-yl)acetamide], the EC50 in assay [1] was less than 200 nM; in assay [2] (R2C cells, EdU incorporation), less than 200 nM.
